Experimental data as given in paper PMC4672112, “Purification, Characterization of L-Methioninase from Candida tropicalis, and Its Application as an Anticancer” (Biotechnology Research International, 2015).

Tested on: T1, L-methioninase
T1 construct: native, intracellular, purified from C. tropicalis cells (heat treatment, DEAE-cellulose, Sephadex); 46 kDa by SDS-PAGE; PLP enzyme
Experiment: DTNB methanethiol assay, […] nm; Lineweaver-Burk plot
Type: biochemical, Candida tropicalis
Settings: optimum assay conditions (pH 6.5, 45 C, 10 min), PLP; substrate range printed as 1 to 40 uM, which conflicts with the unit of Km; read-out: apparent Km

CSCC[C@H](N)C(=O)O [L-methionine]
Km: 500 µM
